Results on four compounds are retold here after US20100137267A1, “FORMULATIONS FOR TREATMENT OF ADIPOSE TISSUE, CUTANEOUS TISSUE AND DISORDERS, AND MUSCULAR TISSUE” (priority 2006, published 2010).

For series [1] the following is noted: compared with albuterol 5, a short acting hydrophilic beta adrenergic agonist; cited from earlier work.
In series [2] the test system is cultured human adipocytes. Nature of the series: In vitro lipolysis assay (glycerol release) in cultured adipocytes. It is filed as cell-based. Particulars: for lipolysis after 18 hour incubation: Salmeterol 10^−6 M or 10^−8 M, Budesonide 10^−6 M in combination; for increase in lipolysis: relative to negative control (0.1% DMSO), Isoproterenol 10^−6 M positive control. How it is done: In the in vitro lipolysis assay, glycerol was detected in cell culture media via a spectrophotometric measurement after chemical oxidation with hydrogen peroxide. Glycerol was measured over a three hour time period. Levels of lipolysis in cultured human adipocytes were tested after exposure to a beta adrenergic agonist alone, a glucocorticosteroid alone, or the combination of the two for one or more preincubation periods as described in more detail below.
Human subcutaneous adipocytes were used in the lipolysis assay. Adipose tissue was harvested from liposuction or lipectomy and pre-adipocytes were isolated as follows. Briefly, fat tissue was minced and incubated at 37° C. in Krebs-Ringer bicarbonate buffer containing 1% bovine serum albumin and 0.1% collagenase in an oxygen-rich shaking chamber (5% CO2; 75 strokes/min) for 1 hour. The suspension was filtered through a 400 μm nylon mesh and centrifuged for 1 min at 100 g. The pre-adipocytes in the supernatant were washed twice with and then plated in 96 well plates at a density of cells/well. The pre-adipocytes were cultured in maintenance medium for seven days as they differentiated into adipocytes.
At −21 hours before the lipolysis assay, medium was removed from each well and replaced with 75 μl of Maintenance Medium containing appropriate drug or DMSO (vehicle) concentrations (see Experimental Design section below). Each test drug or control treatment was applied to 8 wells/group (12 treatment groups per 96-well plate). At −3 hours prior to the lipolysis assay, each well was washed two times with Wash Buffer (200 μl/wash), filled with test or control solutions made up in Assay Buffer (75 μl/well), and then incubated for three hours, i.e., until measurement of glycerol content in the Assay Buffer. For some groups, a drug was only added for the three hour incubation period (see Experimental and Control Groups Below).
The glycerol content of the Assay Buffer from each well following the incubation was used as an index for lipolysis, where an increase in glycerol indicated lipolysis. Glycerol levels were assayed colorimetrically via a commercial glycerol assay kit (Randox Laboratory, United Kingdom) and quantified by comparison to a glycerol serial dilution standard curve (3 μM-200 μM). Glycerol concentrations for each well were normalized to cell density.
In each of the following control or experimental groups n=8 corresponding to the glycerol measurements for 8 wells from a 96-well cell culture plate.

For series [3] the following is noted: Octanol:Water; cited from earlier work.

“Also recorded” adds a separate entry of the source.

Take `OCc1cc(C(O)CNCCCCCCOCCCCc2ccccc2)ccc1O` (racemic) [Salmeterol, ±2-(hydroxymethyl)-4-[1-hydroxy-2-[6-(4-phenylbutoxy)hexylamino]ethyl]-phenol]: the “lipophilicity relative to albuterol” value in series [1] was “at least 10,000 times”. Also, the “lipolysis after 18 hour incubation” value in series [2] (Isoproterenol 10^−6 M) is reported as “decreased lipolysis; also recorded: dose-dependent suppression of lipolysis”.

Turning to budesonide, the “lipolysis after 18 hour incubation” value in series [2] (Isoproterenol 10^−6 M) is “slight suppression of lipolysis”. Further, in series [2] (three hour incubation), the “induction of lipolysis in cultured adipocytes (figure legend)” value is given as “dose-dependent induction of lipolysis” and the increase in lipolysis result is reported as “up to 1.5 fold”. In addition, the “lipolysis compared with Isoproterenol (positive control)” value in series [2] (three hour incubation, Isoproterenol 10^−6 M, formoterol statement holds for concentrations of 10^−6 M and above) is “lower than that observed for Isoproterenol”.

In the case of `CC(C)NCC(O)c1ccc(O)c(O)c1` (stereo not drawn) [Isoproterenol, isoproterenol], in series [2] (Isoproterenol 10^−6 M), the “lipolysis after 18 hour incubation” value was “decreased lipolysis”. In series [2] (three hour incubation), the increase in lipolysis entry was “about 2.5 fold”.

Regarding `COc1ccc(C[C@@H](C)NC[C@H](O)c2ccc(O)c(NC=O)c2)cc1` (racemic) [Formoterol, ±N-[2-hydroxy-5-[1-hydroxy-2-[1-(4-methoxyphenyl)propan-2-ylamino]ethyl]phenyl]methanamide], the “Log P” value in series [3] is listed as 2-4.
